In US12421243B2, “Pharmaceutically effective compounds inhibiting selectively the myosin 2 isoforms” (PRINTNET KERESKEDELMI ÉS SZOLGÁLTATÓ KFT., priority 2018, dated 2025):
Like-named read-outs stand apart in the source and are kept apart here.

Legend:
S. typhimurium TA100 = experiment: Ames Reverse Mutagenicity Assay (Ames MPF Test), TA100; type: cell-based
Experimental: (§1) Mutagenicity of the compounds was determined in the Ames Reverse Mutagenicity Assay (Ames MPF Test, Xenometrix Inc.) approved by the OECD, EMA and FDA on S. typhimurium TA98 and TA100 strains without or in the presence of S9 rat liver fraction. Relative mutagenicity values were prepared using a table provided by the manufacturer. Relative mutagenicity values according to OECD, EMA, and FDA standards may not exceed 2 at any concentration because in such a case they are potentially mutagenic.

[1] = molecular target: recombinant Dictyostelium miozin (Dictyostelium) (Dictyostelium discoideum, UniProt P08799); experiment: actomyosin steady state ATPase measurement, Dictyostelium myosin; type: biochemical
Description: (§2) […]; (ii) the concentration required for semi-maximal inhibition.

[2] = solubility in PBS in the presence of 1% DMSO; type: physicochemical; settings: phosphate buffered saline with 1% DMSO, aqueous buffer, kinetic from dmso stock, PBS w/o Mg, Ca
[3] = molecular target: recombinant human non-muscle myosin 2 NM2A (Homo sapiens, UniProt P35579); experiment: actomyosin steady state ATPase measurement, NM2A; type: biochemical
Description: as §2

[4] = molecular target: recombinant human non-muscle myosin 2 NM2C (Homo sapiens, UniProt Q7Z406); experiment: actomyosin steady state ATPase measurement, NM2C; type: biochemical
Sequence of recombinant human non-muscle myosin 2 NM2C (Q7Z406 whole entry): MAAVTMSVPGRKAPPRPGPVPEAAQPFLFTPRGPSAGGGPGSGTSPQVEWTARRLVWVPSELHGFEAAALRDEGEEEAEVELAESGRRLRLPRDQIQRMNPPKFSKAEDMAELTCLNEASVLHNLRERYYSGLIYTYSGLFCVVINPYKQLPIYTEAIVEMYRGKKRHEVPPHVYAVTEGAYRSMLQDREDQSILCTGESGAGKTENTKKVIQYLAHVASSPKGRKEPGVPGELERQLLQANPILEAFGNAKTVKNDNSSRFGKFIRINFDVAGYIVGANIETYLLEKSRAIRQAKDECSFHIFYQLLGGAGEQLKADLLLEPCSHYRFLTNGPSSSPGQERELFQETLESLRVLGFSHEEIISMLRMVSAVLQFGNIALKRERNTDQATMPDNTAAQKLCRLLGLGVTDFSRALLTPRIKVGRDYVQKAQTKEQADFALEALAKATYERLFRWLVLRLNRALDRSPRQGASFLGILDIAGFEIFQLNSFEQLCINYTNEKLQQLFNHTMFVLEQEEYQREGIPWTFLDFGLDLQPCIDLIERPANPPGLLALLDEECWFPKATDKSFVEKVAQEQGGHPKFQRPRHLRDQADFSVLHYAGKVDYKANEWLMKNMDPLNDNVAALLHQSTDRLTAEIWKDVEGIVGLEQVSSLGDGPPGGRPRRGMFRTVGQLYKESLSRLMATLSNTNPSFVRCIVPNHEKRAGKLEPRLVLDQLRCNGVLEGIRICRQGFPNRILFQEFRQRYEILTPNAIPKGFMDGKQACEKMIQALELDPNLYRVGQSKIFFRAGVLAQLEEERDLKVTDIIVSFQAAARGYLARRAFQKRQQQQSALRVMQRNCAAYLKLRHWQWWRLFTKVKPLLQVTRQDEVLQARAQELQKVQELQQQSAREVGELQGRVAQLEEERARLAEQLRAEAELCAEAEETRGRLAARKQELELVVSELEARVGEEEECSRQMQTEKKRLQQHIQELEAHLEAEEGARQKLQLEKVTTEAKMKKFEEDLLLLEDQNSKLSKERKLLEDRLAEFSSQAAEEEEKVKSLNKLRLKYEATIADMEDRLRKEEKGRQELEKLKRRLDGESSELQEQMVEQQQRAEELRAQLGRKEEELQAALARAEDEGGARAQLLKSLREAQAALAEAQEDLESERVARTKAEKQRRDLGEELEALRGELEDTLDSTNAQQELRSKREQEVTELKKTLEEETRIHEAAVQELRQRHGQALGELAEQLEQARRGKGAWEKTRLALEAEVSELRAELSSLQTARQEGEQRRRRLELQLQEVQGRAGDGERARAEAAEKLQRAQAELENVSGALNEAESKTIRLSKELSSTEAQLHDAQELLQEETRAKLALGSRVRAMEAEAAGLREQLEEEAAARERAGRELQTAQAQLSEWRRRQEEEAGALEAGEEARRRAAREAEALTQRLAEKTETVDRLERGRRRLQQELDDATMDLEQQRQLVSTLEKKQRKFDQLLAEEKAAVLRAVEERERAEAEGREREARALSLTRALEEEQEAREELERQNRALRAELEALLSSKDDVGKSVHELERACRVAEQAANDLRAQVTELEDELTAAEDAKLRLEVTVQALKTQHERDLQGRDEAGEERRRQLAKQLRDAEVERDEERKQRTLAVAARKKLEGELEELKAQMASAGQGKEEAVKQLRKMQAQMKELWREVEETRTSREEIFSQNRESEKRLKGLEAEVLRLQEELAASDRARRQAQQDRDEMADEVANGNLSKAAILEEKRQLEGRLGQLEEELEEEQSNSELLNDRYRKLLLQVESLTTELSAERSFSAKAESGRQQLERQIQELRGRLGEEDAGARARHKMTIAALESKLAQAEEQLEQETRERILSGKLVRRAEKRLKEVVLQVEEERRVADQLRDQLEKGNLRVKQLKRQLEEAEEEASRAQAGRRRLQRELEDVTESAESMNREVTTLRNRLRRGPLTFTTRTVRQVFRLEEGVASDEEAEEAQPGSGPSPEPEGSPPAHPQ
Description: as §2

[5] = vital parameters of live anesthetized rats monitored during isometric force measurement; type: in vivo; settings: anesthetized rat; for Maximum change of vital parameters (%) blood flow: neck arteries
Experimental: The maximum isometric force induced by the stimulation was determined after intraperitoneal injection of some of the compounds of the invention. During the measurement, the following parameters of live anesthetized rats were continuously monitored: • a) heart rate • b) blood flow in the neck arteries • c) respiratory frequency • d) blood oxygen saturation ratio

[6] = molecular target: recombinant human non-muscle myosin 2 NM2B (Homo sapiens, UniProt P35580); experiment: actomyosin steady state ATPase measurement, NM2B; type: biochemical
Description: as §2

[7] = molecular target: isolated smooth muscle myosin (UniProt P10587); type: biochemical, chamois
Sequence of isolated smooth muscle myosin (P10587 whole entry): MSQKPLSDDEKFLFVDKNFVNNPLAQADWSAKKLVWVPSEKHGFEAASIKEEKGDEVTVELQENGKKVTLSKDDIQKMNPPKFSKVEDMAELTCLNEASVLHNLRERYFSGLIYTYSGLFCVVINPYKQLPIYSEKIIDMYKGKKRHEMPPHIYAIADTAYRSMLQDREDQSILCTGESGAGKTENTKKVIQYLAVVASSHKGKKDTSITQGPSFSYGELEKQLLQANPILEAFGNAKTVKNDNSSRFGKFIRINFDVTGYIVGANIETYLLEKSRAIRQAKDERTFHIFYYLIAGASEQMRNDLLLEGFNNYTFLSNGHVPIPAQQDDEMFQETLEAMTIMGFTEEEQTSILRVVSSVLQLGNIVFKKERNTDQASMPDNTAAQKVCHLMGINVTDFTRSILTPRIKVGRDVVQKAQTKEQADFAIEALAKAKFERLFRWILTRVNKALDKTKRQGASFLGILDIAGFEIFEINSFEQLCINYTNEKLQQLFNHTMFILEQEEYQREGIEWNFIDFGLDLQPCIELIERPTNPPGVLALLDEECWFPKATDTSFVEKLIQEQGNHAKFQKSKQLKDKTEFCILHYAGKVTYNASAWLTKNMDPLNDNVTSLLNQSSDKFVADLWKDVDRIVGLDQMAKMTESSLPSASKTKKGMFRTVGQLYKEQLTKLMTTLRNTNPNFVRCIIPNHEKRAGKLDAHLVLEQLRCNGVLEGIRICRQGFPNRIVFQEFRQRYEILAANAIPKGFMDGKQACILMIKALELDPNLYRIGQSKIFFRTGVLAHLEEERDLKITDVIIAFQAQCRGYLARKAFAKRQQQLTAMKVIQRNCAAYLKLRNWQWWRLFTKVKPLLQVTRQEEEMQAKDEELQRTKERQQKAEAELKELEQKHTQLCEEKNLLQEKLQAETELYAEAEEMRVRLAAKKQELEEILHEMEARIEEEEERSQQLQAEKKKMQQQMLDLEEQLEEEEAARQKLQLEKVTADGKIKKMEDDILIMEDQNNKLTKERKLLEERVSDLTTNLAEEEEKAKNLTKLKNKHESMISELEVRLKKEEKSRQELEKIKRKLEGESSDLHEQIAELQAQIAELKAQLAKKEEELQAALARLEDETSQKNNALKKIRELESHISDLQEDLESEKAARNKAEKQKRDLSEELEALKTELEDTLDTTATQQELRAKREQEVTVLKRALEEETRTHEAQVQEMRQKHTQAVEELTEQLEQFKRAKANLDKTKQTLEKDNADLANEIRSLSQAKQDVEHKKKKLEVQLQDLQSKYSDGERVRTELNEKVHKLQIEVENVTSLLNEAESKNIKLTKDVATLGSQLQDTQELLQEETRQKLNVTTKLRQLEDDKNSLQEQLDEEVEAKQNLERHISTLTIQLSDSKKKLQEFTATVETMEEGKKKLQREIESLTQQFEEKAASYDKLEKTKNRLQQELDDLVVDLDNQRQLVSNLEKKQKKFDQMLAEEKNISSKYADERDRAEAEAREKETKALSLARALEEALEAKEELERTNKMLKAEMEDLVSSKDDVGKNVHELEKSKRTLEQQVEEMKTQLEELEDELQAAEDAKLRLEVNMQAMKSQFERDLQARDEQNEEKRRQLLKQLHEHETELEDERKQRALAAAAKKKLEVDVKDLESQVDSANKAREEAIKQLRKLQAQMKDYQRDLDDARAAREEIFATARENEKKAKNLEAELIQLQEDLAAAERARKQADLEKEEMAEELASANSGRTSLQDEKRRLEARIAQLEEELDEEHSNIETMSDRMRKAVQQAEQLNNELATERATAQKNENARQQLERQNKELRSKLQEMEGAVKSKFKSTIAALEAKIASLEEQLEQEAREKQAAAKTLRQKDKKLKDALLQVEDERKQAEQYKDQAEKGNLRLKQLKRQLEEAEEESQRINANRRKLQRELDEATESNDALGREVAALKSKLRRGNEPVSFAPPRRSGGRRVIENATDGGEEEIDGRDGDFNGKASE

[8] = molecular target: T1, isolated porcine cardiac ventricular myocardium (cardiac) (Sus scrofa, UniProt P79293); experiment: actomyosin steady state ATPase measurement, cardiac myosin; type: biochemical
T1 construct: isolated porcine cardiac ventricular myocardium (cardiac); from tissue; host or cells: porcine cardiac ventricle
Description: as §2

S. typhimurium TA98 = experiment: Ames Reverse Mutagenicity Assay (Ames MPF Test), TA98; type: cell-based
Experimental: as §1

[9] = molecular target: isolated smooth muscle myosin (UniProt P10587); type: biochemical, chamois; settings: concentration required for semi-maximal inhibition of ATPase
Description: (ii) the concentration required for semi-maximal inhibition.

[10] = test system: isolated rabbit skeletal muscle myosin (skeletal); experiment: actomyosin steady state ATPase measurement, skeletal muscle myosin; type: biochemical
Description: as §2

[11] = tissue concentrations after intraperitoneal injection into a live rat; type: in vivo; settings: ip, 6 mg i.p.
[12] = maximum value of inhibition of ATPase activity
[13] = concentration required for semi-maximal inhibition of ATPase
[14] = 5 μM (10 μM if racemate), ATPase activity
[15] = 50 μM (100 μM if racemate), ATPase activity
[16] = blood, read-out: Concentration of compound 188 in tissue samples (μM) blood
[17] = brain, read-out: Concentration of compound 188 in tissue samples (μM) brain
[18] = skeletal muscle, read-out: Concentration of compound 188 in tissue samples (μM) muscle
[19] = kidney, read-out: Concentration of compound 188 in tissue samples (μM) kidney
[20] = liver, read-out: Concentration of compound 188 in tissue samples (μM) liver
[21] = lung, read-out: Concentration of compound 188 in tissue samples (μM) lung
[22] = myocardium, read-out: Concentration of compound 188 in tissue samples (μM) myocardium
[23] = spleen, read-out: Concentration of compound 188 in tissue samples (μM) spleen
[24] = urine, read-out: Concentration of compound 188 in tissue samples (μM) urine

SMILES: O=C1c2ccsc2N=C2N(c3ccc(N4CCOCC4)cc3)CCC12O (stereo not shown) [Compound 188, 9-Hydroxy-12-[4-(morpholin-4-yl)phenyl]-4-thia-2,12-diazatricyclo[7.3.0.0^3,7]dodeca-1,3(7),5-trien-8-one]
- Relative mutagenicity (as compared to the control value) (S. typhimurium TA100; TA100, +S9, 31.25 μM): 0.4
- Relative mutagenicity (as compared to the control value) (S. typhimurium TA100; TA100, +S9, 62.5 μM): 0.3
- Relative mutagenicity (as compared to the control value) (S. typhimurium TA100; TA100, +S9, 125 μM): 0.6
- Relative mutagenicity (as compared to the control value) (S. typhimurium TA100; TA100, +S9, 250 μM): 0.6
- Relative mutagenicity (as compared to the control value) (S. typhimurium TA100; TA100, +S9, 500 μM): 0.6
- Relative mutagenicity (as compared to the control value) (S. typhimurium TA100; TA100, +S9, 1000 μM): 0.5
- Relative mutagenicity (as compared to the control value) (S. typhimurium TA100; TA100, −S9, 31.25 μM): 0.8
- Relative mutagenicity (as compared to the control value) (S. typhimurium TA100; TA100, −S9, 62.5 μM): 0.5
- Relative mutagenicity (as compared to the control value) (S. typhimurium TA100; TA100, −S9, 125 μM): 0.6
- Relative mutagenicity (as compared to the control value) (S. typhimurium TA100; TA100, −S9, 250 μM): 0.5
- Relative mutagenicity (as compared to the control value) (S. typhimurium TA100; TA100, −S9, 500 μM): 0.6
- Relative mutagenicity (as compared to the control value) (S. typhimurium TA100; TA100, −S9, 1000 μM): 0.7
- IC50 ([1]; concentration required for semi-maximal inhibition of ATPase, read-out: IC50 (μM) Dicty): 13 µM
- % inhibition. complete Dicty [1, 12]: 19%
- inhibition at 5 µM ([1]; read-out: % inhibition at 5 μM (or 10 μM if racemate) Dicty): 5%
- inhibition at 50 µM ([1]; read-out: % inhibition at 50 μM (or 100 μM if racemate) Dicty): 15%
- solubility [2]: 1450 µM
- IC50 [3, 13]: 82 µM
- % inhibition. complete NM2A [3, 12]: 31%
- inhibition at 5 µM ([3]; read-out: % inhibition at 5 μM (or 10 μM if racemate) NM2A, 5 μM (10 μM if racemate), ATPase activity): 0%
- inhibition at 50 µM ([3]; read-out: % inhibition at 50 μM (or 100 μM if racemate) NM2A, 50 μM (100 μM if racemate), ATPase activity): 9%
- IC50 [4, 13]: 4 µM
- Inhibition (%) NM2C ([4]; maximum inhibition, compounds in IC50 range 1-5 μM): 15%
- % inhibition. complete NM2C [4, 12]: 15%
- inhibition at 5 µM ([4]; read-out: % inhibition at 5 μM (or 10 μM if racemate) NM2C, 5 μM (10 μM if racemate), ATPase activity): 8%
- inhibition at 50 µM ([4]; read-out: % inhibition at 50 μM (or 100 μM if racemate) NM2C, 50 μM (100 μM if racemate), ATPase activity): 14%
- Maximum change of vital parameters (%) heart rate ([5]; 1 mg i.p.): 3%
- Maximum change of vital parameters (%) oxygen saturation ([5]; 1 mg i.p.): −16%
- Maximum change of vital parameters (%) respiratory frequency ([5]; 1 mg i.p.): −18%
- Maximum change of vital parameters (%) blood flow ([5]; 1 mg i.p.): 15%
- Maximum change of vital parameters (%) heart rate ([5]; 3 mg i.p.): −3%
- Maximum change of vital parameters (%) oxygen saturation ([5]; 3 mg i.p.): −3%
- Maximum change of vital parameters (%) respiratory frequency ([5]; 3 mg i.p.): 5%
- Maximum change of vital parameters (%) blood flow ([5]; 3 mg i.p.): −5%
- Maximum change of vital parameters (%) heart rate ([5]; 6 mg i.p.): −9%
- Maximum change of vital parameters (%) oxygen saturation ([5]; 6 mg i.p.): −1%
- Maximum change of vital parameters (%) respiratory frequency ([5]; 6 mg i.p.): −1%
- Maximum change of vital parameters (%) blood flow ([5]; 6 mg i.p.): −1%
- Maximum change of vital parameters (%) heart rate ([5]; 9 mg i.p.): −12%
- Maximum change of vital parameters (%) oxygen saturation ([5]; 9 mg i.p.): −27%
- Maximum change of vital parameters (%) respiratory frequency ([5]; 9 mg i.p.): −40%
- Maximum change of vital parameters (%) blood flow ([5]; 9 mg i.p.): 9%
- IC50 [6, 13]: 5 µM
- % inhibition. complete NM2B [6, 12]: 19%
- inhibition at 5 µM ([6]; read-out: % inhibition at 5 μM (or 10 μM if racemate) NM2B, 5 μM (10 μM if racemate), ATPase activity): 8%
- inhibition at 50 µM ([6]; read-out: % inhibition at 50 μM (or 100 μM if racemate) NM2B, 50 μM (100 μM if racemate), ATPase activity): 18%
- % inhibition at 5 μM (or 10 μM if racemate) Smooth [7, 14]: 0%
- % inhibition at 50 μM (or 100 μM if racemate) Smooth [7, 15]: 11%
- % inhibition. complete Smooth [7, 12]: 100%
- IC50 [8, 13]: > 100 µM
- % inhibition. complete cardiac [8, 12]: 32%
- inhibition at 5 µM ([8]; read-out: % inhibition at 5 μM (or 10 μM if racemate) cardiac, 5 μM (10 μM if racemate), ATPase activity): 0%
- inhibition at 50 µM ([8]; read-out: % inhibition at 50 μM (or 100 μM if racemate) cardiac, 50 μM (100 μM if racemate), ATPase activity): 8%
- Relative mutagenicity (as compared to the control value) (S. typhimurium TA98; TA98, +S9, 31.25 μM): 0.2
- Relative mutagenicity (as compared to the control value) (S. typhimurium TA98; TA98, +S9, 62.5 μM): 0.2
- Relative mutagenicity (as compared to the control value) (S. typhimurium TA98; TA98, +S9, 125 μM): 0.4
- Relative mutagenicity (as compared to the control value) (S. typhimurium TA98; TA98, +S9, 250 μM): 0.4
- Relative mutagenicity (as compared to the control value) (S. typhimurium TA98; TA98, +S9, 500 μM): 0.4
- Relative mutagenicity (as compared to the control value) (S. typhimurium TA98; TA98, +S9, 1000 μM): 0.2
- Relative mutagenicity (as compared to the control value) (S. typhimurium TA98; TA98, −S9, 31.25 μM): 1.2
- Relative mutagenicity (as compared to the control value) (S. typhimurium TA98; TA98, −S9, 62.5 μM): 0.3
- Relative mutagenicity (as compared to the control value) (S. typhimurium TA98; TA98, −S9, 125 μM): 0.7
- Relative mutagenicity (as compared to the control value) (S. typhimurium TA98; TA98, −S9, 250 μM): 0.3
- Relative mutagenicity (as compared to the control value) (S. typhimurium TA98; TA98, −S9, 500 μM): 0.7
- Relative mutagenicity (as compared to the control value) (S. typhimurium TA98; TA98, −S9, 1000 μM): 1.0
- IC50 [9]: > 100 µM
- % inhibition at 5 μM (or 10 μM if racemate) Skeletal [10, 14]: 50%
- % inhibition at 50 μM (or 100 μM if racemate) Skeletal [10, 15]: 95%
- IC50 [10, 13]: 5 µM
- % inhibition. complete Skeletal [10, 12]: 100%
- concentration at 5 min [11, 16]: 12 µM
- concentration at 15 min [11, 16]: 16 µM
- concentration at 30 min [11, 16]: 12 µM
- concentration at 45 min [11, 16]: 10 µM
- concentration at 60 min [11, 16]: 8 µM
- concentration at 5 min [11, 17]: 25 µM
- concentration at 15 min [11, 17]: 45 µM
- concentration at 30 min [11, 17]: 36 µM
- concentration at 45 min [11, 17]: 17 µM
- concentration at 60 min [11, 17]: 5 µM
- concentration at 5 min [11, 18]: 22 µM
- concentration at 15 min [11, 18]: 48 µM
- concentration at 30 min [11, 18]: 69 µM
- concentration at 45 min [11, 18]: 78 µM
- concentration at 60 min [11, 18]: 74 µM
- concentration at 5 min [11, 19]: 29 µM
- concentration at 15 min [11, 19]: 56 µM
- concentration at 30 min [11, 19]: 20 µM
- concentration at 45 min [11, 19]: 12 µM
- concentration at 60 min [11, 19]: 3 µM
- concentration at 5 min [11, 20]: 30 µM
- concentration at 15 min [11, 20]: 18 µM
- concentration at 30 min [11, 20]: 12 µM
- concentration at 45 min [11, 20]: 9 µM
- concentration at 60 min [11, 20]: 3 µM
- concentration at 5 min [11, 21]: 25 µM
- concentration at 15 min [11, 21]: 36 µM
- concentration at 30 min [11, 21]: 22 µM
- concentration at 45 min [11, 21]: 9 µM
- concentration at 60 min [11, 21]: 4 µM
- concentration at 5 min [11, 22]: 36 µM
- concentration at 15 min [11, 22]: 48 µM
- concentration at 30 min [11, 22]: 26 µM
- concentration at 45 min [11, 22]: 18 µM
- concentration at 60 min [11, 22]: 9 µM
- concentration at 5 min [11, 23]: 37 µM
- concentration at 15 min [11, 23]: 28 µM
- concentration at 30 min [11, 23]: 11 µM
- concentration at 45 min [11, 23]: 5 µM
- concentration at 60 min [11, 23]: 3 µM
- concentration at 5 min [11, 24]: 58 µM
- concentration at 15 min [11, 24]: 77 µM
- concentration at 30 min [11, 24]: 72 µM
- concentration at 45 min [11, 24]: 63 µM
- concentration at 60 min [11, 24]: 21 µM
